Test results taken from ChEMBL document CHEMBL1201862, “PubChem BioAssay data set” (2004).
Activity calls are given as the source filed them.

How the values were obtained:
[1] = target: T1, Heat shock factor protein 1 (Mus musculus, UniProt P38532); assay: inhibition of MG132-induced HSE-luciferase signal, confirmation, cell-based, NIH3T3, luminescence, dose retest (AID 2382); type: functional;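 further: NIH3T3 fibroblasts with HSF1-driven luciferase reporter stressed by proteasome inhibitor MG132; luminescence from HSF1-driven luciferase expression after 8 hours of MG132 stress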
T1 sequence (P38532 whole entry): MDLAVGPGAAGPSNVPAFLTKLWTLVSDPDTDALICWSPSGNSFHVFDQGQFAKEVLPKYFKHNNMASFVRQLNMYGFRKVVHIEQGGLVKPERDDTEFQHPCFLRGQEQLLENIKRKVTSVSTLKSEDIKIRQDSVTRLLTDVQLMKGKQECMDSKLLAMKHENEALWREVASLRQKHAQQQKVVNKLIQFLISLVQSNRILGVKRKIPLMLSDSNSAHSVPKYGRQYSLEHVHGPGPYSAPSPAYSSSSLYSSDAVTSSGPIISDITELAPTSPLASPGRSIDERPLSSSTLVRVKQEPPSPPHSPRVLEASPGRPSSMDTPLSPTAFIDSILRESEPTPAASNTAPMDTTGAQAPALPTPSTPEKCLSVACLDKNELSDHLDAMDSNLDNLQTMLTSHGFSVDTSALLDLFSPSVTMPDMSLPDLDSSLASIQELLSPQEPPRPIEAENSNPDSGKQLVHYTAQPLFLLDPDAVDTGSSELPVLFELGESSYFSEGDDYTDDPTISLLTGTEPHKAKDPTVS

[2] = inhibitors of firefly luciferase expression or activity, dose response, H4 neuroglioma cells, luminescence (AID 1990); type: functional, cell-based
[3] = Luminescence Cell-Based Dose Response HTS to Identify Inhibitors of 5'UTR Stem-Loop Driven Prion Protein mRNA Translation in H4 Neuroglioblastoma Cells. [Related pubchem assays: 1827 (Project Summary), 1813 (Primary HTS)]; type: functional
[4] = inhibitors of SNCA 5'UTR-driven reporter translation, confirmation, H4 neuroglioma cells, luminescence (AID 1988); type: functional, cell-based
[5] = target: Cytochrome P450 2C19 (Homo sapiens, UniProt P33261); assay: Cytochrome panel assay with activity outcomes. Panel member name: p450-cyp2c19 Compounds with AC50 equal or less than 10 uM are considered active; type: functional
Cytochrome P450 2C19, sequence (P33261 whole entry): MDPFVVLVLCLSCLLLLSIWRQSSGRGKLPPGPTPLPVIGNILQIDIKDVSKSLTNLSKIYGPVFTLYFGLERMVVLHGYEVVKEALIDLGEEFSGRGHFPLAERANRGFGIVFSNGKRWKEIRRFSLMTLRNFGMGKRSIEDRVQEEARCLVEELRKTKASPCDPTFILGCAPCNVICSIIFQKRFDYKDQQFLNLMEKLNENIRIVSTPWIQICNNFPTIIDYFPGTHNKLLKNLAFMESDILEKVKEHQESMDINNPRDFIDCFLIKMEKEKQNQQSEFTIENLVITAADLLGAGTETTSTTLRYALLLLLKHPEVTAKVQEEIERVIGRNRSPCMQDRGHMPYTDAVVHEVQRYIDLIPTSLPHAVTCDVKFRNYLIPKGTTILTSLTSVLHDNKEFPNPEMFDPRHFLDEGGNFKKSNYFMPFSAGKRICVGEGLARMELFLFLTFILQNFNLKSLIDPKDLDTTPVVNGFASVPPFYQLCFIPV

[6] = NIH-3T3 fibroblast cytotoxicity, dose response, cytotoxicity control, cell-based, fluorescence, Alamar Blue, secondary assay (AID 2327); type: functional;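 further: NIH-3T3 mouse fibroblasts cultured with fluconazole at 8 µg/mL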
[7] = C. albicans growth with fluconazole, confirmation, fluorescence, retest (AID 2467); type: functional, cell-based
[8] = target: FAD-linked sulfhydryl oxidase ALR (Homo sapiens, UniProt P55789); assay: inhibitors of human ALR sulfhydryl oxidase, dose response, biochemical, H2O2 detection, luminescence, cherry-pick (AID 493248)
FAD-linked sulfhydryl oxidase ALR, sequence (P55789 whole entry): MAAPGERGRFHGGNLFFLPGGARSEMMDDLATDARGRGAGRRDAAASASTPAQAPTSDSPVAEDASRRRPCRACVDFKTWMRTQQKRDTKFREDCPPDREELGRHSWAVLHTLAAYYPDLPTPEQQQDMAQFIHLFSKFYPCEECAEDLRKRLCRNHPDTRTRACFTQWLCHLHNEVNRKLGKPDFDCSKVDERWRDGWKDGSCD

[9] = inhibitors of intracellular T. cruzi replication, confirmation, NIH3T3 host cells, beta-gal luminescence (AID 2044); type: functional, cell-based;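 further: intracellular parasites grown in NIH/3T3 mouse fibroblasts as host cells; luminescent beta-galactosidase reporter signal from transgenic T. cruzi replicating inside host cells; inhibitors lower the luminescence signal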
[10] = cytotoxicity toward NIH3T3 fibroblasts, dose response, counter-screen, cell-based, ATP luminescence, mouse fibroblasts (AID 2010); type: functional;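 further: cells exposed to compound for about 90 hours before reading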
[11] = Shn3 3'UTR reporter inhibitors, dose response, cell-based, Clone20 osteoblasts, firefly luciferase, cherry-picked (AID 624132); type: functional;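 further: firefly luciferase luminescence from reporter carrying the Shn3 3'UTR in osteoblasts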
[12] = control 3'UTR Renilla luciferase suppression, dose response, counter-screen for Shn3 inhibitor project, cell-based, Clone20-Shn3RL, cherry-picked (AID 624133); type: functional
[13] = tested on: INS1; assay: beta cell apoptosis inhibitors, cytokine rescue, dose response, luminescence, retest (AID 449756); type: functional, cell-based; conditions: Rattus norvegicus;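 further: cell death triggered by IL-1 beta plus TNF-alpha plus IFN-gamma mixture; protective hits raise ATP signal compared with cytokine alone wells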
[14] = tested on: Streptococcus sp. 'group A'; assay: growth inhibition of control SK(-) GAS strain, dose response, counter-screen for streptokinase expression inhibitor project, luminescence, kanamycin, BacTiterGlo, confirmation (AID 1900); type: functional, organism-based
[15] = tested on: Streptococcus; assay: Group A Streptococcus viability loss, dose response, counter-screen for streptokinase expression inhibitor project, luminescence, BacTiterGlo (AID 1915); type: functional, organism-based;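 further: potency for reduction of bacterial viability or growth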

For `Cc1ccc(S(=O)(=O)CC(=O)Nc2ccc(S(=O)(=O)Nc3onc(C)c3C)cc2)cc1`, the EC50 [1] was > 195 µM (not active).

For `COc1ccccc1C(=O)NCCn1cc(SCC(=O)Nc2cc(C)on2)c2ccccc21`, the EC50 [2] was 16.2 µM (active), the EC50 [3] was > 120 µM (not active) and the EC50 [4] was > 120 µM (not active).

With `C=CCn1c(S)nnc1-c1cccn(Cc2ccccc2)c1=O` the EC50 [2] was > 120 µM (not active), the EC50 [3] was 27.4 µM (active) and the EC50 [4] was > 120 µM (not active). The AC50 ([5]; read-out: AC50) was 25.1 µM (inconclusive).

In the case of `CN1C2CCC1CC(OC(=O)c1ccc(Cl)cc1)C2` (stereo not given), the AC50 ([5]; read-out: AC50) is reported as 5.62 µM (inconclusive).

In the case of `CN(C)c1ccc(CNc2ncnc3sccc23)cc1`, the EC50 [6] is reported as > 160 µM (inactive) and the EC50 [7] is reported as 2.63 µM (active).

In the case of `O=C(NCc1ccco1)c1ccccc1NS(=O)(=O)c1ccc(Cl)s1`, the AC50 [8] is reported as 2.1 µM (active).

With `O=c1[nH]n2c(C(F)(F)F)cc(C3CC3)nc2c1N=Nc1ccccc1` the EC50 [6] was > 150 µM (inactive) and the EC50 [7] was 1.05 µM (active).

With `O=C(Cn1cc(C(=O)c2ccco2)c2ccccc21)NC1CCCCC1` the EC50 [1] was > 195 µM (not active).

With `Nc1ccc(Cl)c(S(=O)(=O)Nc2ccc(Cl)cc2)c1` the EC50 [9] was 39.7 µM (active) and the EC50 [10] was > 60 µM (not active).

For `Cc1ccc(-c2nc(-c3cccnc3)sc2CC(=O)O)cc1`, the AC50 [8] was 3.45 µM (active).

With `Oc1[nH]c2ccc(Br)cc2c1N=Nc1ccc(C(F)(F)F)cn1` the EC50 [9] was 2.33 µM (active) and the EC50 [10] was > 60 µM (not active).

With `COc1cc(OC)cc(-c2cc(N3C(=O)Nc4ccccc4N3O)[nH]n2)c1` the EC50 [1] was 73.7 µM (active).

With `O=C(Nc1ccc(-c2nc3ccccc3s2)cc1)C1=COCCO1` the EC50 [3] was 5.8 µM (active) and the EC50 [4] was 2.95 µM (active).

For `COC(=O)C1=CN(Cc2ccc(OC)c(OC)c2)C=C(C(=O)OC)C1c1cccc(OC)c1OC`, the EC50 [9] was 0.384 µM (active) and the EC50 [10] was > 60 µM (not active).

In the case of `COc1c(Cl)cc(Cl)cc1CNCCNCC(C)O` (stereo not given), the AC50 ([5]; read-out: AC50) is reported as 14.1 µM (inconclusive).

With `O=C(c1cc([N+](=O)[O-])ccc1N1CCCCC1)N1CCc2ccccc21` the EC50 [2] was > 120 µM (not active), the EC50 [3] was > 120 µM (not active) and the EC50 [4] was 10.9 µM (active).

In the case of `O=C(CC(Sc1ccc(Br)cc1)C(=O)O)c1ccc(F)cc1` (stereo not given), the EC50 [9] is reported as 2.1 µM (active) and the EC50 [10] is reported as > 30 µM (not active).

In the case of `CC(=O)N1CCOCCOCCN(C(C)=O)CCOCCOCC1`, the EC50 [6] is reported as > 150 µM (inconclusive).

For `CCOC(=O)N1CCN(CC(c2ccccc2)c2ccccc2)CC1`, the AC50 [11] was 14.1 µM (active) and the AC50 [12] was 39.1 µM (active).

In the case of `O=C(CN1CCN(S(=O)(=O)c2ccc3ccccc3c2)CC1)NC(=O)NC1CCCCC1`, the EC50 [2] is reported as 13 µM (active), the EC50 [3] is reported as > 120 µM (not active) and the EC50 [4] is reported as 46.8 µM (active).

With `Cc1cccc2cc(CN(Cc3cccs3)Cc3nnnn3Cc3ccccc3)c(O)nc12` the EC50 [9] was 2.68 µM (active) and the EC50 [10] was > 30 µM (not active).

In the case of `C1=C(c2ccccc2)CCN(c2[nH]cnc3ncnc2-3)C1`, the EC50 [1] is reported as > 195 µM (not active).

In the case of `Cc1ccc2nc(Cl)c(-c3ccccc3)cc2c1`, the EC50 [2] is reported as > 120 µM (not active), the EC50 [3] is reported as > 120 µM (not active) and the EC50 [4] is reported as > 120 µM (not active).

With `CCc1ccc(-[n+]2cc(-c3ccc(F)cc3)n3c2SCCC3)cc1` the AC50 [13] was 0.429 µM (active).

For `Cn1c(=O)[nH]c(=O)c2c1nc(CN1CCOCC1)n2CCCO`, the AC50 [5] was “inconclusive”.

In the case of `Cc1cc(C(=O)N2CCCC(Nc3ccc(C(C)C)cc3)C2)nn1C` (stereo not given), the AC50 [8] is reported as 6.69 µM (active).

For `Cc1c(Br)cnn1C(C)C(=O)N1CCN(c2ccc(F)cc2)CC1` (stereo not given), the AC50 [8] was 0.578 µM (active).

In the case of `c1ccc(CNc2ncnc3sc4c(c23)CCCC4)nc1`, the AC50 [8] is reported as 37.2 µM (active).

With `Cc1cccc(N2CCN(C(=O)NC3CCCCC3)CC2C)c1` (stereo not given) the AC50 [8] was 6.6 µM (active).

With `C/C(=N\Nc1ccc(Cl)c(C(=O)O)c1)c1cc2ccccc2o1` the AC50 [8] was 0.138 µM (active).

In the case of `C/C(=N\Nc1nc(C)cc(-c2ccccc2)n1)c1ccc(O)cc1`, the AC50 [13] is reported as 0.993 µM (active).

With `O=C(N/N=C/c1ccccc1F)NC12CC3CC(CC(C3)C1)C2` the EC50 [9] was 2.78 µM (active) and the EC50 [10] was > 30 µM (not active).

In the case of `CC(=O)O[C@H]1CC[C@]2(C)[C@H]3CC=C4[C@@H]5[C@@H](C)[C@H](C)CC[C@]5(C(=O)O)CC[C@@]4(C)[C@]3(C)CC[C@H]2C1(C)C` [O-ACETYLURSOLIC ACID], the EC50 [14] is reported as 2.11 µM (active) and the EC50 [15] is reported as 3.26 µM (active).
